Laboratory results published in the supplement of paper PMC8967900.

What was measured:
Assay in all cases: selective drug sensitivity score (sDSS, relative to normal bone marrow) (sDSS (score)); higher = more potent and effective on the cell line relative to normal bone marrow cells
Conditions in all cases: 72 h
697 = system: 697
MHH-CALL-4 = system: MHH-CALL-4
COG-LL-355h = system: COG-LL-355h
MOLT-16 = system: MOLT-16
P12-ICHIKAWA = system: P12-ICHIKAWA
CCRF-CEM = system: CCRF-CEM
REH = system: REH
ALL-PO = system: ALL-PO
MHH-CALL-3 = system: MHH-CALL-3
COG-LL-332h = system: COG-LL-332h
COG-LL-319h = system: COG-LL-319h
TMD5 = system: TMD5
MOLT-14 = system: MOLT-14
KASUMI-9 = system: KASUMI-9
PEER = system: PEER
HAL-01 = system: HAL-01
COG-LL-394h = system: COG-LL-394h
380 = system: 380
NALM-6 = system: NALM-6
TANOUE = system: TANOUE
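Note: ALL cell lines in 384-well plates, five doses spanning 10,000-fold, each plate scaled between vehicle and 100 µmol/L benzalkonium chloride controls, sDSS an adapted area-under-curve metric.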

Structure (SMILES) | selective drug sensitivity score 697 | selective drug sensitivity score (MHH-CALL-4) | selective drug sensitivity score (COG-LL-355h) | selective drug sensitivity score (MOLT-16) | selective drug sensitivity score (P12-ICHIKAWA) | selective drug sensitivity score (CCRF-CEM) | selective drug sensitivity score (REH) | selective drug sensitivity score (ALL-PO) | selective drug sensitivity score (MHH-CALL-3) | selective drug sensitivity score (COG-LL-332h) | selective drug sensitivity score (COG-LL-319h) | selective drug sensitivity score (TMD5) | selective drug sensitivity score (MOLT-14) | selective drug sensitivity score (KASUMI-9) | selective drug sensitivity score (PEER) | selective drug sensitivity score (HAL-01) | selective drug sensitivity score (COG-LL-394h) | selective drug sensitivity score 380 | selective drug sensitivity score (NALM-6) | selective drug sensitivity score (TANOUE)
CC(=O)c1cnc2ccc(-c3cc(Cl)c(O)c(Cl)c3)nc2c1N[C@H]1CC[C@H](CN(C)C)CC1 [OTS167] (top concentration 1000 nM) | 5.48 | 2.58 | 6.18 | 2.78 | -3.32 | 2.48 | 2.18 | -2.12 | -1.02 | 3.78 | 6.58 | -7.22 | 2.78 | 3.58 | 1.78 | 1.88 | 4.08 | 9.38 | -1.52 | -12.1
COC(=O)C[C@](O)(CCCC(C)(C)O)C(=O)O[C@@H]1C(OC)=C[C@]23CCCN2CCc2cc4c(cc2[C@H]13)OCO4 [Omacetaxine] (top concentration 10000 nM) | 10.5 | 3.52 | 4.62 | 6.32 | 0.82 | 3.02 | -1.08 | -3.38 | 15.6 | 2.62 | 4.12 | -2.08 | 5.62 | 1.12 | -1.88 | 1.32 | 13 | 14.1 | 4.52 | -14.8
C1=N/C2=N/c3ccc(OCCN4CCCC4)c(c3)COC/C=C/COCc3cccc(c3)C(=C1)N2 [Pacritinib] (top concentration 10000 nM) | -2.6 | -5.3 | 2.9 | -5.6 | -7.3 | -6.1 | -3.2 | -0.4 | -7.7 | -4.1 | 0 | -9.2 | -4 | -0.9 | -5.6 | -0.6 | -4 | -8.7 | -2.3 | -8.4
Cc1[nH]c2ccccc2c1CCNCc1ccc(/C=C/C(=O)NO)cc1 [Panobinostat] (top concentration 1000 nM) | 7.64 | 4.94 | 4.84 | 9.04 | 4.14 | 5.34 | 0.44 | 6.14 | 15.6 | 3.64 | 14.2 | 2.74 | 6.74 | 11.7 | 4.34 | -3.26 | 2.84 | 12.1 | 4.14 | -6.56
Cc1ccc(Nc2nccc(N(C)c3ccc4c(C)n(C)nc4c3)n2)cc1S(N)(=O)=O [Pazopanib] (top concentration 10000 nM) | 4.94 | -1.26 | -1.26 | 1.94 | 1.04 | 0.04 | 4.14 | -1.06 | -1.26 | 0.14 | 0.74 | 4.54 | -1.26 | 3.64 | 2.84 | -0.16 | -0.76 | -0.86 | -1.26 | -1.26
Nc1nc2[nH]cc(CCc3ccc(C(=O)N[C@@H](CCC(=O)O)C(=O)O)cc3)c2c(=O)[nH]1 [Pemetrexed] (top concentration 10000 nM) | 28.3 | 15.2 | 4.28 | 28.4 | 26.1 | 23.6 | 22.1 | 30.9 | 13.5 | 21.9 | 27.3 | -0.72 | 20.2 | 18.6 | 15.5 | 20.8 | 1.58 | 22.6 | 24.5 | -0.72
Cc1ccc(C(=O)Nc2ccc(CN3CCN(C)CC3)c(C(F)(F)F)c2)cc1C#Cc1cnc2cccnn12 [Ponatinib] (top concentration 1000 nM) | 6.62 | 4.72 | 5.52 | 6.62 | 1.22 | 1.82 | 2.62 | 14.1 | 10.7 | 17.6 | 10.3 | 19 | 7.42 | 5.42 | 18.6 | 8.42 | 1.12 | 9.52 | 0.82 | -3.78
C[C@]12C=CC(=O)C=C1CC[C@@H]1[C@@H]2[C@@H](O)C[C@@]2(C)[C@H]1CC[C@]2(O)C(=O)CO [Prednisolone] (top concentration 10000 nM) | 17.8 | 25.5 | 20.6 | 3.5 | 14.6 | 6.4 | -3 | 28.9 | 26.7 | 2.5 | 16.2 | 4.8 | -0.5 | 2 | -3 | -2.6 | -3 | 23.8 | 15.9 | -2.8
CC(C)(C)c1cc(NC(=O)Nc2ccc(-c3cn4c(n3)sc3cc(OCCN5CCOCC5)ccc34)cc2)no1 [Quizartinib] (top concentration 1000 nM) | 0.98 | -1.52 | -1.02 | 1.88 | 0.18 | 0.98 | -1.52 | 14.1 | -1.52 | 2.78 | 5.48 | -1.52 | -1.02 | -0.02 | -0.02 | 3.18 | -0.32 | -1.52 | 1.38 | -1.52
Nc1cc(F)ccc1NC(=O)/C=C/c1cnn(C/C=C/c2ccccc2)c1 [RGFP966] (top concentration 10000 nM) | 13.2 | 2.94 | 4.84 | 18.2 | 17.8 | 13.9 | 17.1 | 3.64 | 12.3 | 15.7 | 17.5 | 8.54 | 17.1 | 13.5 | 10.2 | 12.7 | 2.34 | 12.9 | 13.3 | -0.26
CNC(=O)c1cc(Oc2ccc(NC(=O)Nc3ccc(Cl)c(C(F)(F)F)c3)c(F)c2)ccn1 [Regorafenib] (top concentration 10000 nM) | 7.94 | 2.74 | 6.74 | 3.34 | 3.24 | 3.74 | 4.44 | 7.14 | -1.56 | 6.74 | 1.84 | 2.74 | 4.04 | 2.04 | 7.64 | 2.04 | 5.94 | 8.54 | 4.04 | 4.44
CN(C)Cc1ccc(S(=O)(=O)n2ccc(/C=C/C(=O)NO)c2)cc1 [Resminostat] (top concentration 10000 nM) | 7.74 | 7.04 | 6.04 | 4.54 | 7.34 | 3.74 | 2.04 | 6.34 | 11.7 | 1.34 | 12.2 | 0.34 | 9.74 | 10.2 | 8.24 | 1.84 | 2.04 | 7.44 | 1.34 | -4.16
COc1cc(OC)c(/C=C/S(=O)(=O)Cc2ccc(OC)c(NCC(=O)O)c2)c(OC)c1 [Rigosertib] (top concentration 10000 nM) | 17 | 8.26 | 4.16 | 18.8 | 10.4 | 14.4 | 14 | 11.2 | 13.4 | 15.8 | 4.96 | 8.16 | 17.9 | 18.3 | 15.9 | 14.5 | 6.76 | 14.3 | 16.1 | -5.04
COc1ccc(CCc2nc3cc(-c4c(C)noc4C)ccc3n2C[C@H](C)N2CCOCC2)cc1Cl [SGC-CBP30] (top concentration 25000 nM) | 2.48 | 1.68 | 9.88 | 6.58 | 1.68 | 4.28 | -0.02 | 4.38 | 9.48 | 0.28 | 16.4 | -2.62 | 4.58 | 5.58 | 4.08 | 3.98 | 5.38 | 0.38 | 0.08 | -3.12
CCS(=O)(=O)c1cccc(-c2cc(C(=O)NC3CCN(C)CC3)c(C)c3[nH]c4ncc(C)cc4c23)c1 [TAK-901] (top concentration 1000 nM) | 12.8 | 3.16 | 6.16 | 12.6 | 12.3 | 11.2 | 11.1 | 7.76 | 6.66 | 11.3 | 10.5 | 7.16 | 7.26 | 10.8 | 12.4 | -2.74 | 3.66 | 10.4 | 9.66 | -4.74
Nc1nc(NC2CC2)cc(-c2cccc(Cl)c2Cl)n1 [TH588] (top concentration 25000 nM) | 8.72 | -0.58 | 2.42 | 16.3 | 3.72 | 7.52 | 5.82 | 10.5 | -0.58 | 6.82 | 3.82 | -0.28 | 10.8 | 7.92 | 12 | -0.58 | -0.58 | -0.58 | -0.58 | -0.58
CC(=O)Nc1ccc(C(=O)Nc2ccccc2N)cc1 [Tacedinaline] (top concentration 1000 nM) | 1.88 | 9.18 | -0.02 | -0.02 | 0.68 | 2.08 | -0.02 | -0.02 | 1.58 | -0.02 | 1.98 | 10.6 | -0.02 | 4.38 | 0.68 | 9.18 | -0.02 | 12.2 | -0.02 | -0.02
Cn1ncnc1[C@H]1c2n[nH]c(=O)c3cc(F)cc(c23)N[C@@H]1c1ccc(F)cc1 [Talazoparib] (top concentration 1000 nM) | 15.8 | 10.2 | 8.28 | 19.1 | -0.52 | 5.98 | -3.72 | 4.78 | 20.3 | 6.58 | 21.3 | -1.52 | 10.5 | 8.98 | -3.72 | 6.58 | -0.62 | 21.4 | 3.78 | -4.92
